Assay results as given in patent publication US6379882B1, “Method for selecting compounds for treating ischemia-related cellular damage” (Elan Pharmaceuticals, Inc., priority 1998, dated 2002).
Entries after “also recorded” stand apart in the source; their conditions may differ. Like-named read-outs stand apart in the source and are kept apart here.

Assays:
retinal ganglion cells [1] = settings: literature; cited from earlier work
[2] = tested on: rat neocortical tissue slices; settings: Evans et al. 1982; Kral et al. 1993; cited from earlier work
retinal ganglion cells [3] = format: cell-based, rat
cortical neuronal cells = settings: cited from earlier work
[4] = tested on: isolated retinas of chick embryos; settings: LDH release and histological assessment; Chen et al. 1998; cited from earlier work
NMDA receptor = settings: whole cell recordings; Chen et al. 1998; cited from earlier work
retinal ganglion cells [5] = settings: Lagreze et al. 1998, cited from earlier work
[6] = co-exposure to 1.0 mM, about 24 hours, Yamamoto and Tang 1998

| Structure (SMILES) | prevention of NMDA receptor-mediated death of retinal ganglion cells in vivo (retinal ganglion cells [1]) | protection of oxygen/glucose-deprived RGCs from apoptotic cell death (in words) (retinal ganglion cells [3]) | protective effect on neurons under ischemic or excitotoxic conditions [4] | NMDA receptor mediated currents (NMDA receptor) | also measured |
| --- | --- | --- | --- | --- | --- |
| NC(CCCCCP(=O)(O)O)C(=O)O (stereo not drawn) | prevent NMDA receptor-mediated death of retinal ganglion cells in vivo | – | – | – | – |
| NC(CCCP(=O)(O)O)C(=O)O (racemic) [AP-5, DL-2-amino-5-phosphonovaleric acid] | – | demonstrated biological activity in protecting oxygen/glucose-deprived RGCs from apoptotic cell death | – | – | protective effect in neocortical tissue slices [2]: protective effect |
| NC(CCCCCP(=O)(O)O)C(=O)O (racemic) [AP-7] | – | demonstrated biological activity in protecting oxygen/glucose-deprived RGCs from apoptotic cell death | – | – | increase of extracellular LDH and neuronal disintegration by potassium cyanide and NMDA (cortical neuronal cells): partially prevented |
| N=C(NCCC[C@H](N)C(=O)O)N[N+](=O)[O-] [N^G-nitro-L-arginine] | – | – | – | – | increase of extracellular LDH and neuronal disintegration by potassium cyanide and NMDA (cortical neuronal cells; [6]): partially prevented |
| O=C(O)c1ccccc1Nc1cccc(C(F)(F)F)c1 [flufenamic acid] | – | demonstrated biological activity in protecting oxygen/glucose-deprived RGCs from apoptotic cell death | protective effect | inhibited NMDA receptor mediated currents | – |
| O=C(O)c1cc(=O)c2ccccc2[nH]1 [kynurenic acid] | prevent NMDA receptor-mediated death of retinal ganglion cells in vivo | – | – | – | – |
| Cc1ccc(Cl)c(Nc2ccccc2C(=O)O)c1Cl [meclofenamic acid] | – | to a lesser extent; also recorded: Less efficacy | protective effect | inhibited NMDA receptor mediated currents | – |
| Cc1cccc(Nc2ccccc2C(=O)O)c1C [mefenamic acid] | – | to a lesser extent; also recorded: Less efficacy | protective effect | inhibited NMDA receptor mediated currents | – |
| COc1ccc2[nH]cc(CCNC(C)=O)c2c1 [melatonin] | – | – | – | – | increase of extracellular LDH and neuronal disintegration by potassium cyanide and NMDA (cortical neuronal cells; [6]): partially prevented |
| CC12CC3CC(C)(C1)CC(N)(C3)C2 [memantine] | prevent NMDA receptor-mediated death of retinal ganglion cells in vivo | – | – | – | prevention of NMDA receptor-mediated death of retinal ganglion cells (in words) (retinal ganglion cells [5]): prevent NMDA receptor-mediated death of retinal ganglion cells; increase in the number of surviving retinal ganglion cells (retinal ganglion cells [5]; administered before retinal ischemia): ~30%; increase in the number of surviving retinal ganglion cells (retinal ganglion cells [5]; administered within 30 minutes of retinal ischemia): ~20% |
